Test results from article PMC3479356 (ChemMedChem, 2012).
Where two headings read alike, the source gives them in different places.

What was measured:
[1] = biological target: T1, recombinant human RXR receptor (Homo sapiens, UniProt P19793); test: RXR mammalian two-hybrid assay
T1 sequence (P19793 1-462) 1: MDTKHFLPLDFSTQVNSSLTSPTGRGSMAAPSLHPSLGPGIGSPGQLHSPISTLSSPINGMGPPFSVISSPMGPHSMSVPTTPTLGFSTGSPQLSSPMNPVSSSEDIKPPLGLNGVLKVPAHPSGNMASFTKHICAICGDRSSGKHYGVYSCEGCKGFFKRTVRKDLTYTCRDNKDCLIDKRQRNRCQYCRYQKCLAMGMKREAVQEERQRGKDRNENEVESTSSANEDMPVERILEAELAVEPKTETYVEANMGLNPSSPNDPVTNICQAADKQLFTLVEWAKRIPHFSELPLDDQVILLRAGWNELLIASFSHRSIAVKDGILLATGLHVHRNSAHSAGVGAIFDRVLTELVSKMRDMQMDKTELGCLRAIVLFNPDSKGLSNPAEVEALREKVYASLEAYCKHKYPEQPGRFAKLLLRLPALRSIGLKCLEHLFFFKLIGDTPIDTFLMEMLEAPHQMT
T1 sequence (P19793 1-462) 2: T1 sequence (P19793 1-462) 1

human RXRα = biological target: T2, human RXRα (Homo sapiens, UniProt P19793); test: RXRE-mediated transcription assay; type: cell-based; settings: 10^−7 M, 24 h
T2 sequence (P19793 1-462): T1 sequence (P19793 1-462) 1

RXR = settings: Caco-2 colon cancer cells; cited from earlier work

C=C(c1ccc(C(=O)O)c(I)c1)c1cc2c(cc1C)C(C)(C)CCC2(C)C [Analog 16, 2-Iodo-4-(1-(1,2,3,4-tetrahydro-1,1,4,4,6-pentamethylnaphthalen-7-yl)vinyl)benzoic acid]
EC50 [1]: 280 nM
RXR binding and homodimerization, % of the parent compound 1 efficiency ([1]; 10^−7 M, 24 h, independent of the cell line (Caco-2 and HCT-116)): ~20%

C=C(c1ccc(C(=O)O)c(Br)c1)c1cc2c(cc1C)C(C)(C)CCC2(C)C [Analog 14, 2-Bromo-4-(1-(1,2,3,4-tetrahydro-1,1,4,4,6-pentamethylnaphthalen-7-yl)vinyl)benzoic acid]
EC50 [1]: 150 nM

Cc1cc2c(cc1C(=O)c1ccc(C(=O)O)c(I)c1)C(C)(C)CCC2(C)C [Compound 17, 2-Iodo-4-(1-(3,5,5,8,8-pentamethyl-5,6,7,8-tetrahydronaphthalen-2-yl)carbonyl)benzoic acid]
RXR homodimer-mediated transcription compared with ethanol vehicle (human RXRα; Caco-2 cells): not able to activate transcription
RXR homodimer-mediated transcription compared with ethanol vehicle (human RXRα; HCT-116 cells): significant activity

C=C(c1ccc(C(=O)O)c(Cl)c1)c1cc2c(cc1C)C(C)(C)CCC2(C)C [Analog 12, 2-Chloro-4-(1-(1,2,3,4-tetrahydro-1,1,4,4,6-pentamethylnaphthalen-7-yl)vinyl)benzoic acid]
EC50 [1]: 90 nM

C=C(c1cc(F)c(C(=O)O)c(F)c1)c1cc2c(cc1C)C(C)(C)CCC2(C)C [Analog 18, 2,6-difluoro-4-(1-(1,2,3,4-tetrahydro-1,1,4,4,6-pentamethylnaphthalen-7-yl)vinyl)benzoic acid]
RXR homodimer-mediated transcription compared with ethanol vehicle (human RXRα; Caco-2 and HCT-116 cells): significantly better than that of the ethanol vehicle

Cc1cc2c(cc1C(=O)c1cc(F)c(C(=O)O)c(F)c1)C(C)(C)CCC2(C)C [Analog 19, 2,6-Difluoro-4-(1-(3,5,5,8,8-pentamethyl-5,6,7,8-tetrahydronaphthalen-2-yl)carbonyl)benzoic acid]
EC50 ([1]; read-out: EC50 value, transfected HCT-116 cells, full dose-response curves 10^−10 to 10^−5 M, ± S.D.): 550 nM

C=C(c1ccc(C(=O)O)c(F)c1)c1cc2c(cc1C)C(C)(C)CCC2(C)C [Compound 11, 2-fluoro-4-(1-(1,2,3,4-tetrahydro-1,1,4,4,6-pentamethylnaphthalen-7-yl)vinyl)benzoic acid]
RXR activation compared with 1 (RXR): slightly higher RXR activation
